In patent US20250154169A1, “COMPOUNDS AND METHODS FOR MODULATING SPLICING” (REMIX THERAPEUTICS INC., priority 2021, published 2025):
Structures can show the parent of a compound that is named as a salt. Where two headings read alike, the source gives them in different places.

What was measured:
Format in all cases: cell-based, human
HTT mRNA [1] = assay: Splicing RT-qPCR gene panel, HTT canonical junction (CJ) mRNA; details: Homo sapiens, Tables 4A/4B, read-out: HTT (IC50, decrease in CJ mRNA, gene panel)
Procedure, shortened: (§1)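 A673/K562, 24 h cpd, 11-pt 3-fold from 10 uM, DMSO ≤0.25%. Lysis, direct RT-qPCR of CJ isoform, ≥duplicate. GAPDH/GUSB/PPIA norm, ΔΔCt vs DMSO → RQ → % response.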

MYB mRNA = assay: Splicing RT-qPCR assay, MYB canonical (CJ) and alternative (AJ) junction mRNA; details: Homo sapiens; for AC50: read-out: MYB AJ (AC50, increase in alternative junction mRNA)
Procedure, shortened: (§2)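 A673 or K562 cells were treated 24 h at 37 °C with an 11-point 3-fold compound dilution series (top 10 uM, DMSO ≤0.25%). Lysates went to one-step RT-qPCR measuring canonical (CJ) and alternative-exon (AJ) junction transcripts, normalized to GAPDH, GUSB or PPIA.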

Target C mRNA = assay: Splicing RT-qPCR gene panel, Target C canonical junction (CJ) mRNA; details: Homo sapiens, Tables 4A/4B, read-out: Target C (IC50, decrease in CJ mRNA, gene panel)
Procedure, shortened: as §1

SMN2 mRNA = assay: Splicing RT-qPCR gene panel, SMN2 canonical junction (CJ) mRNA; details: Homo sapiens, Tables 4A/4B, read-out: SMN2 (IC50, decrease in CJ mRNA, gene panel)
Procedure, shortened: as §1

HTT mRNA [2] = assay: Splicing RT-qPCR assay, HTT canonical (CJ) and alternative (AJ) junction mRNA; details: Homo sapiens, A673 or K562 cells, 24 hours compound treatment; for IC50: 24 h, read-out: HTT CJ (IC50, decrease in canonical junction mRNA); for AC50: read-out: HTT AJ (AC50, increase in alternative junction mRNA)
Procedure, shortened: as §2

[3] = 24 h, A673 or K562 cells, 24 hours compound treatment, RT-qPCR
[4] = 24 h, A673 or K562 cells, 24 hours compound treatment, RT-qPCR, read-out: MYB CJ (IC50, decrease in canonical junction mRNA)
[5] = Tables 4A/4B, canonical junction qPCR panel, read-out: MYB (IC50, decrease in CJ mRNA, gene panel)

SMILES	IC50 (HTT mRNA [1]) [µM]	IC50 (MYB mRNA; [4]) [µM]	IC50 (MYB mRNA; [5]) [µM]	IC50 (Target C mRNA) [µM]	IC50 (SMN2 mRNA) [µM]	IC50 (HTT mRNA [2]) [µM]	AC50 (MYB mRNA; [3]) [µM]	AC50 (HTT mRNA [2]) [µM]
Cc1cc(NC(=O)c2ccc(N3CCNCC3)c3cn(C)nc23)cc2c1nc(C)n2C [Compound 321, 2-methyl-4-(piperazin-1-yl)-N-(2,3,7-trimethyl-1,3-benzodiazol-5-yl) indazole-7-carboxamide trifluoroacetate]	> 10	> 10	> 10	> 10	> 10	> 10	> 10	> 10
Cc1cn2nc(NC(=O)c3ccc(N4CCNCC4)c4cn(C)nc34)cc(C)c2n1 [Compound 322, N-{2,8-dimethylimidazo[1,2-b]pyridazin-6-yl}-2-methyl-4-(piperazin-1-yl) indazole-7-carboxamide hydrochloride]	> 10	1 to 10	1 to 10	> 10	1 to 10	> 10	> 10	> 10
Cn1cc2cc(NC(=O)c3ccc(N4CCNCC4)c4cn(C)nc34)ccc2n1 [Compound 324, 2-methyl-N-(2-methylindazol-5-yl)-4-(piperazin-1-yl) indazole-7-carboxamide hydrochloride]	> 10	0.1 to 1	0.1 to 1	> 10	< 0.1	> 10	0.1 to 1	1 to 10
Cc1c(O)c(NC(=O)c2ccc(N3CCNCC3)c3cn(C)nc23)cc2cn(C)nc12 [Compound 325, N-(6-hydroxy-2,7-dimethylindazol-5-yl)-2-methyl-4-(piperazin-1-yl) indazole-7-carboxamide hydrochloride]	> 10	1 to 10	1 to 10	> 10	< 0.1	> 10	1 to 10	> 10
Cc1cn2cc(NC(=O)c3ccc(N4CCC(CN)C4)c4cn(C)nc34)cc(F)c2n1 (stereo not drawn) [Compound 327, 4-[3-(aminomethyl)pyrrolidin-1-yl]-N-{8-fluoro-2-methylimidazo[1,2-a]pyridin-6-yl}-2-methylindazole-7-carboxamide]	> 10	0.1 to 1	0.1 to 1	> 10	0.1 to 1	> 10	0.1 to 1	> 10
CC(=O)NC1CCN(c2ccc(C(=O)Nc3cc(F)c4nc(C)cn4c3)c3nn(C)cc23)CC1 [Compound 328, 4-(4-acetamidopiperidin-1-yl)-N-{8-fluoro-2-methylimidazo[1,2-a]pyridin-6-yl}-2-methylindazole-7-carboxamide]	> 10	1 to 10	1 to 10	> 10	0.1 to 1	> 10	> 10	> 10
Cc1cn2cc(NC(=O)c3ccc(N4CCNCC4)c4cn(CC(O)CO)nc34)cc(F)c2n1 (stereo not drawn) [Compound 329, 2-(2,3-dihydroxypropyl)-N-{8-fluoro-2-methylimidazo[1,2-a]pyridin-6-yl}-4-(piperazin-1-yl)indazole-7-carboxamide]	> 10	> 10	> 10	> 10	1 to 10	> 10	> 10	> 10
CCN(CC)C1CCN(c2ccc(C(=O)Nc3cc(F)c4nc(C)cn4c3)c3nn(CCOC)cc23)C1 (stereo not drawn) [Compound 330, 4-(3-(diethylamino)pyrrolidin-1-yl)-N-(8-fluoro-2-methylimidazo[1,2-a]pyridin-6-yl)-2-(2-methoxyethyl)-2H-indazole-7-carboxamide compound with 2,2,2-trifluoro-113-ethan-1-one]	> 10	0.1 to 1	0.1 to 1	> 10	< 0.1	> 10	0.1 to 1	> 10
Cc1nc2c(F)cc(NC(=O)c3ccc(N4CCNCC4)c4cn(C)nc34)cc2n1C [Compound 332, N-(7-fluoro-2,3-dimethyl-1,3-benzodiazol-5-yl)-2-methyl-4-(piperazin-1-yl) indazole-7-carboxamide; trifluoroacetic acid]	> 10	> 10	> 10	> 10	> 10	> 10	> 10	> 10
Cc1cn2cc(NC(=O)c3ccc(N4C[C@@H](C)N[C@@H](C)C4)c4cn(C)nc34)nc(C)c2n1 [Compound 334, N-{2,8-dimethylimidazo[1,2-a]pyrazin-6-yl}-4-[(3R,5S)-3,5-dimethylpiperazin-1-yl]-2-methylindazole-7-carboxamide]	> 10	0.1 to 1	0.1 to 1	> 10	< 0.1	> 10	0.1 to 1	> 10
Cc1cn2cc(NC(=O)c3ccc(N4CCC(CN)CC4)c4cn(C)nc34)cc(F)c2n1 [Compound 335, 4-[4-(aminomethyl)piperidin-1-yl]-N-{8-fluoro-2-methylimidazo[1,2-a]pyridin-6-yl}-2-methylindazole-7-carboxamide]	> 10	1 to 10	1 to 10	> 10	0.1 to 1	> 10	1 to 10	> 10

Continued, in another order:

IC50 (HTT mRNA [1]) [µM]	IC50 (MYB mRNA; [4]) [µM]	IC50 (MYB mRNA; [5]) [µM]	IC50 (Target C mRNA) [µM]	IC50 (SMN2 mRNA) [µM]	IC50 (HTT mRNA [2]) [µM]	SMILES	AC50 (MYB mRNA; [3]) [µM]	AC50 (HTT mRNA [2]) [µM]
1 to 10	0.1 to 1	0.1 to 1	> 10	< 0.1	1 to 10	Cc1cc(NC(=O)c2ccc(N3CCNCC3)c3cn(C)nc23)cc2cn(C)nc12 [Compound 320, N-(2,7-dimethylindazol-5-yl)-2-methyl-4-(piperazin-1-yl) indazole-7-carboxamide; trifluoroacetic acid]	0.1 to 1	1 to 10
< 0.1	< 0.1	< 0.1	1 to 10	< 0.1	< 0.1	COc1nc(NC(=O)c2ccc(N3CCNCC3)c3cn(C)nc23)cn2cc(C)nc12 [Compound 323]	< 0.1	0.1 to 1
0.1 to 1	< 0.1	< 0.1	1 to 10	< 0.1	0.1 to 1	Cc1cn2cc(NC(=O)c3ccc(N4C[C@@H](C)N[C@@H](C)C4)c4cn(C)nc34)cc(F)c2n1 [Compound 326, 4-[(3R,5S)-3,5-dimethylpiperazin-1-yl]-N-{8-fluoro-2-methylimidazo[1,2-a]pyridin-6-yl}-2-methylindazole-7-carboxamide]	< 0.1	0.1 to 1
1 to 10	0.1 to 1	0.1 to 1	> 10	< 0.1	1 to 10	Cc1cn2cc(NC(=O)c3ccc(N4CCNCC4)c4cn(C)nc34)c(F)cc2n1 [Compound 333, N-{7-fluoro-2-methylimidazo[1,2-a]pyridin-6-yl}-2-methyl-4-(piperazin-1-yl) indazole-7-carboxamide trifluoroacetate]	0.1 to 1	1 to 10
0.1 to 1	< 0.1	< 0.1	0.1 to 1	< 0.1	0.1 to 1	Cc1cn2cc(NC(=O)c3ccc(N4CCC(C)(N)CC4)c4cn(C)nc34)cc(F)c2n1 [Compound 336, 4-(4-amino-4-methylpiperidin-1-yl)-N-{8-fluoro-2-methylimidazo[1,2-a]pyridin-6-yl}-2-methylindazole-7-carboxamide]	< 0.1	0.1 to 1
1 to 10	0.1 to 1	0.1 to 1	> 10	< 0.1	1 to 10	Cc1cn2cc(NC(=O)c3ccc(N4CCNCC4)c4cn(CCCl)nc34)cc(F)c2n1 [Compound 337, 2-(2-chloroethyl)-N-{8-fluoro-2-methylimidazo[1,2-a]pyridin-6-yl}-4-(piperazin-1-yl)indazole-7-carboxamide]	0.1 to 1	1 to 10
1 to 10	0.1 to 1	0.1 to 1	> 10	< 0.1	1 to 10	Cc1cn2cc(NC(=O)c3ccc(N4CCNCC4)c4cn(CC5CCO5)nc34)cc(F)c2n1 (stereo not drawn) [Compound 338, N-{8-fluoro-2-methylimidazo[1,2-a]pyridin-6-yl}-2-(oxetan-2-ylmethyl)-4-(piperazin-1-yl)indazole-7-carboxamide]	0.1 to 1	1 to 10
